Measured values as given in PubChem BioAssay AID2060327 (Molecular Pharmacology Branch, DTP, NCI, 2025).
Several values for one entry are separate records, joined by “and”; a condition that tells them apart may be missing. Identical values can stand only once. Blank lines part the entries; values can stand above or below the compound they belong to.

Test system: PC-3 multi-cell spheroids, viability
Assay: Anticancer human tumor PC-3 cell line growth inhibition [IpAb];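 also: spheroids exposed to compounds for 7 days before readout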;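 as to viability, T/C: 100% = DMSO vehicle control wells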
Conditions: for viability, T/C: stronger effect = lower value
Outline: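 Multi-cell spheroids of 60% tumour cells, 25% HUVEC and 15% MSC in ultra-low-attachment U-bottom wells, treated with agents combined with ipatasertib or abemaciclib. Half-log ranges top out near clinical Cmax, or 10 microM when Cmax is unknown.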

[1] = curve of first compound, second compound 0.1 µM
[2] = curve of first compound, second compound 0.316 µM
[3] = curve of first compound, second compound 1 µM
[4] = curve of first compound, second compound 3.16 µM
[5] = curve of first compound, second compound 10 µM
[6] = second compound 0.1 µM, first compound 0.0316 µM
[7] = second compound 0.1 µM, first compound 0.1 µM
[8] = second compound 0.1 µM, first compound 0.316 µM
[9] = second compound 0.1 µM, first compound 1 µM
[10] = second compound 0.1 µM, first compound 3.16 µM
[11] = second compound 0.1 µM, first compound 10 µM
[12] = second compound 0.316 µM, first compound 0.0316 µM
[13] = second compound 0.316 µM, first compound 0.1 µM
[14] = second compound 0.316 µM, first compound 0.316 µM
[15] = second compound 0.316 µM, first compound 1 µM
[16] = second compound 0.316 µM, first compound 3.16 µM
[17] = second compound 0.316 µM, first compound 10 µM
[18] = second compound 1 µM, first compound 0.0316 µM
[19] = second compound 1 µM, first compound 0.1 µM
[20] = second compound 1 µM, first compound 0.316 µM
[21] = second compound 1 µM, first compound 1 µM
[22] = second compound 1 µM, first compound 3.16 µM
[23] = second compound 1 µM, first compound 10 µM
[24] = curve of first compound, second compound 0.01 µM
[25] = curve of first compound, second compound 0.0316 µM
[26] = second compound 0.01 µM, first compound 0.0316 µM
[27] = second compound 0.01 µM, first compound 0.1 µM
[28] = second compound 0.01 µM, first compound 0.316 µM
[29] = second compound 0.01 µM, first compound 1 µM
[30] = second compound 0.01 µM, first compound 3.16 µM
[31] = second compound 0.01 µM, first compound 10 µM
[32] = second compound 0.0316 µM, first compound 0.0316 µM
[33] = second compound 0.0316 µM, first compound 0.1 µM
[34] = second compound 0.0316 µM, first compound 0.316 µM
[35] = second compound 0.0316 µM, first compound 1 µM
[36] = second compound 0.0316 µM, first compound 3.16 µM
[37] = second compound 0.0316 µM, first compound 10 µM

Compound: Cn1cnc2c(F)c(Nc3ccc(Br)cc3Cl)c(C(=O)NOCCO)cc21 + CC(C)NCC(C(=O)N1CCN(c2ncnc3c2C(C)CC3O)CC1)c1ccc(Cl)cc1
- IC50 [1]: > 3 µM
- IC50 [2]: < 0.00949 µM
- IC50 [3]: < 0.00949 µM
- IC50 [4]: < 0.00949 µM
- IC50 [5]: < 0.00949 µM
- viability, T/C (second compound 0.1 µM, first compound 0.00949 µM): 83.2%
- viability, T/C (second compound 0.1 µM, first compound 0.03 µM): 73.6%
- viability, T/C (second compound 0.1 µM, first compound 0.0949 µM): 88.3%
- viability, T/C (second compound 0.1 µM, first compound 0.3 µM): 78.9%
- viability, T/C (second compound 0.1 µM, first compound 0.949 µM): 70%
- viability, T/C (second compound 0.1 µM, first compound 3 µM): 55.6%
- viability, T/C (second compound 0.316 µM, first compound 0.00949 µM): 46.5%
- viability, T/C (second compound 0.316 µM, first compound 0.03 µM): 45%
- viability, T/C (second compound 0.316 µM, first compound 0.0949 µM): 47.3%
- viability, T/C (second compound 0.316 µM, first compound 0.3 µM): 44.5%
- viability, T/C (second compound 0.316 µM, first compound 0.949 µM): 45%
- viability, T/C (second compound 0.316 µM, first compound 3 µM): 37.1%
- viability, T/C (second compound 1 µM, first compound 0.00949 µM): 25.6%
- viability, T/C (second compound 1 µM, first compound 0.03 µM): 27.1%
- viability, T/C (second compound 1 µM, first compound 0.0949 µM): 24.1%
- viability, T/C (second compound 1 µM, first compound 0.3 µM): 20.8%
- viability, T/C (second compound 1 µM, first compound 0.949 µM): 19.9%
- viability, T/C (second compound 1 µM, first compound 3 µM): 17.6%
- viability, T/C (second compound 3.16 µM, first compound 0.00949 µM): 8.45%
- viability, T/C (second compound 3.16 µM, first compound 0.03 µM): 6.53%
- viability, T/C (second compound 3.16 µM, first compound 0.0949 µM): 7.72%
- viability, T/C (second compound 3.16 µM, first compound 0.3 µM): 7.02%
- viability, T/C (second compound 3.16 µM, first compound 0.949 µM): 8%
- viability, T/C (second compound 3.16 µM, first compound 3 µM): 6.09%
- viability, T/C (second compound 10 µM, first compound 0.00949 µM): 12.9%
- viability, T/C (second compound 10 µM, first compound 0.03 µM): 12.2%
- viability, T/C (second compound 10 µM, first compound 0.0949 µM): 11.5%
- viability, T/C (second compound 10 µM, first compound 0.3 µM): 12.1%
- viability, T/C (second compound 10 µM, first compound 0.949 µM): 11.4%
- viability, T/C (second compound 10 µM, first compound 3 µM): 10.7%

Compound: C=CCn1c(=O)c2cnc(Nc3ccc(N4CCN(C)CC4)cc3)nc2n1-c1cccc(C(C)(C)O)n1 + CC(C)NCC(C(=O)N1CCN(c2ncnc3c2C(C)CC3O)CC1)c1ccc(Cl)cc1
- IC50 [1]: 0.114 µM
- IC50 [2]: < 0.0316 µM
- IC50 [3]: < 0.0316 µM
- IC50 [4]: < 0.0316 µM
- IC50 [5]: < 0.0316 µM
- viability, T/C [6]: 73.4%
- viability, T/C [7]: 48.6%
- viability, T/C [8]: 42.4%
- viability, T/C [9]: 20.5%
- viability, T/C [10]: 19.6%
- viability, T/C [11]: 21.1%
- viability, T/C [12]: 41.3%
- viability, T/C [13]: 31.3%
- viability, T/C [14]: 15.4%
- viability, T/C [15]: 14.1%
- viability, T/C [16]: 13.8%
- viability, T/C [17]: 17.2%
- viability, T/C [18]: 20.4%
- viability, T/C [19]: 16.2%
- viability, T/C [20]: 10.6%
- viability, T/C [21]: 9.67%
- viability, T/C [22]: 9.62%
- viability, T/C [23]: 11.5%
- viability, T/C (second compound 3.16 µM, first compound 0.0316 µM): 14.3%
- viability, T/C (second compound 3.16 µM, first compound 0.1 µM): 11%
- viability, T/C (second compound 3.16 µM, first compound 0.316 µM): 8.81%
- viability, T/C (second compound 3.16 µM, first compound 1 µM): 7.7%
- viability, T/C (second compound 3.16 µM, first compound 3.16 µM): 8.01%
- viability, T/C (second compound 3.16 µM, first compound 10 µM): 7.89%
- viability, T/C (second compound 10 µM, first compound 0.0316 µM): 13.1%
- viability, T/C (second compound 10 µM, first compound 0.1 µM): 11.7%
- viability, T/C (second compound 10 µM, first compound 0.316 µM): 8.4%
- viability, T/C (second compound 10 µM, first compound 1 µM): 6.86%
- viability, T/C (second compound 10 µM, first compound 3.16 µM): 7.49%
- viability, T/C (second compound 10 µM, first compound 10 µM): 7.22%

- IC50 (curve of compound): > 3 µM
Compound: Cn1cnc2c(F)c(Nc3ccc(Br)cc3Cl)c(C(=O)NOCCO)cc21
- viability, T/C (compound 0.00949 µM): 105% and 99.8%
- viability, T/C (compound 0.03 µM): 113% and 107%
- viability, T/C (compound 0.0949 µM): 96.4% and 95.3%
- viability, T/C (compound 0.3 µM): 85.1% and 96%
- viability, T/C (compound 0.949 µM): 91.9% and 91%
- viability, T/C (compound 3 µM): 65.1% and 73.2%

Compound: C=CC(=O)N1CCN(c2nc(=O)n(-c3c(C)ccnc3C(C)C)c3nc(-c4c(O)cccc4F)c(F)cc23)C(C)C1 (configuration not stated) + CCN1CCN(Cc2ccc(Nc3ncc(F)c(-c4cc(F)c5nc(C)n(C(C)C)c5c4)n3)nc2)CC1
- IC50 [24]: > 10 µM
- IC50 [25]: > 10 µM
- IC50 [1]: > 10 µM
- IC50 [2]: > 10 µM
- IC50 [3]: 5.26 µM
- viability, T/C [26]: 84.3%
- viability, T/C [27]: 96%
- viability, T/C [28]: 98.6%
- viability, T/C [29]: 101%
- viability, T/C [30]: 114%
- viability, T/C [31]: 116%
- viability, T/C [32]: 51.8%
- viability, T/C [33]: 57.3%
- viability, T/C [34]: 69.8%
- viability, T/C [35]: 79.2%
- viability, T/C [36]: 107%
- viability, T/C [37]: 78.5%
- viability, T/C [6]: 58.1%
- viability, T/C [7]: 60.2%
- viability, T/C [8]: 60.4%
- viability, T/C [9]: 54.7%
- viability, T/C [10]: 64.2%
- viability, T/C [11]: 74.8%
- viability, T/C [12]: 65.2%
- viability, T/C [13]: 67.8%
- viability, T/C [14]: 68.4%
- viability, T/C [15]: 70.6%
- viability, T/C [16]: 61%
- viability, T/C [17]: 48.2%
- viability, T/C [18]: 56.3%
- viability, T/C [19]: 65.5%
- viability, T/C [20]: 60.5%
- viability, T/C [21]: 59.1%
- viability, T/C [22]: 60.3%
- viability, T/C [23]: 37.5%

Compound: CC1(C)CCC(CN2CCN(c3ccc(C(=O)NS(=O)(=O)c4ccc(NCC5CCOCC5)c([N+](=O)[O-])c4)c(Oc4cnc5[nH]ccc5c4)c3)CC2)=C(c2ccc(Cl)cc2)C1 + CCN1CCN(Cc2ccc(Nc3ncc(F)c(-c4cc(F)c5nc(C)n(C(C)C)c5c4)n3)nc2)CC1
- IC50 [24]: 5.52 µM
- IC50 [25]: 4.54 µM
- IC50 [1]: 4.19 µM
- IC50 [2]: 3.98 µM
- IC50 [3]: 1.28 µM
- viability, T/C [26]: 102%
- viability, T/C [27]: 101%
- viability, T/C [28]: 107%
- viability, T/C [29]: 98.1%
- viability, T/C [30]: 93.2%
- viability, T/C [31]: 4%
- viability, T/C [32]: 73.1%
- viability, T/C [33]: 71.5%
- viability, T/C [34]: 73.6%
- viability, T/C [35]: 64.8%
- viability, T/C [36]: 71.4%
- viability, T/C [37]: 4.41%
- viability, T/C [6]: 65.9%
- viability, T/C [7]: 66%
- viability, T/C [8]: 58.7%
- viability, T/C [9]: 64.2%
- viability, T/C [10]: 70.1%
- viability, T/C [11]: 3.35%
- viability, T/C [12]: 62.9%
- viability, T/C [13]: 70.4%
- viability, T/C [14]: 66.3%
- viability, T/C [15]: 61.7%
- viability, T/C [16]: 61.9%
- viability, T/C [17]: 3.28%
- viability, T/C [18]: 60.8%
- viability, T/C [19]: 60.2%
- viability, T/C [20]: 54.3%
- viability, T/C [21]: 51.8%
- viability, T/C [22]: 41.5%
- viability, T/C [23]: 4.98%
